The source of these data is US20110160196A1, “FACTOR XA INHIBITORS” (Millennium Pharmaceuticals, Inc., priority 2007, published 2011).

The target of the assay is T1, human plasma protein factor Xa (Homo sapiens, UniProt P00742).
T1 construct: The human plasma protein factor Xa was purchased; purchased Haematologic Technologies (Essex Junction, Vt.); host or cells: human plasma
T1 sequence (P00742 235-488 limits assumed): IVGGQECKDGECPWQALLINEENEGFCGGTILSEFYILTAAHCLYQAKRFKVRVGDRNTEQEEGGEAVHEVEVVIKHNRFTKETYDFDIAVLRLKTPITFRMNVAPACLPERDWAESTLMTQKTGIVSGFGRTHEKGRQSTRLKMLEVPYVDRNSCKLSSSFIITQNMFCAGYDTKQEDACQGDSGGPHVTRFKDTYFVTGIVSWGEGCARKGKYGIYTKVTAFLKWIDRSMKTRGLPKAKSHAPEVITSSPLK
T1 sequence (P00742 41-179 partner limits assumed): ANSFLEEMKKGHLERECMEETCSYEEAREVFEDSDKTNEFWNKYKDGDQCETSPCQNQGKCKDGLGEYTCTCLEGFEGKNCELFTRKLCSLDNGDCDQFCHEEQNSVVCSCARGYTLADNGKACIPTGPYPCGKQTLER
In words: Factor Xa IC50 determination (cleavage of paranitroanilide substrate S-2765). The assay is classed as biochemical. The following applies: factor Xa 1 nM, S-2765 100 μM, Tris buffered saline pH 7.4, read at 405 nm. The text has this: This example illustrates methods for evaluating the compounds of the invention, along with results obtained for such assays. The in vitro and in vivo human Factor Xa activities of the inventive compounds can be determined by various procedures known in the art, such as a test for their ability to inhibit the activity of human plasma Factor Xa. […] The IC50 value is the concentration (in nM) of the compound required to provide 50% inhibition of human Factor Xa proteolytic activity.
An in vitro assay for detecting and measuring inhibition activity against Factor Xa is as follows:
The substrate S-2765 (Z-D-Arg-Gly-Arg-pNA.HCl) was obtained from Diapharma (West Chester, Ohio).
The human plasma protein factor Xa was purchased from Haematologic Technologies (Essex Junction, Vt.).
All assays, which are performed in 96-well microtiter plates, measure proteolytic activity of the enzyme (factor Xa) by following cleavage of a paranitroanilide peptide substrate. The assay buffer used for proteolytic assays was Tris buffered saline (20 mM Tris, 150 mM NaCl, 5 mM CaCl2, 0.1% Bovine serum albumin (BSA), 5% Dimethly Sulfoxide (DMSO) pH 7.4). In a 96-well microtiter plate, inhibitor was serially diluted to give a range of final concentrations from 0.01 nM to 10 μM. Duplicate sets of wells were assayed and control wells without inhibitor were included. Enzyme was added to each well, (factor Xa concentration=1 nM), the plate was shaken for 5 seconds and then incubated for 5 minutes at room temperature. S-2765 was added (100 μM final) and the plate was shaken for 5 seconds (final volume in each well was 200 μl). The degree of substrate hydrolysis was measured at 405 nm on a Thermomax plate reader (Molecular Devices, Sunnyvale, Calif.) for 2 minutes. The initial velocities of substrate cleavage (mOD/min), for each range of inhibitor concentrations, were fitted to a four parameter equation using Softmax data analysis software. The parameter C, derived from the resulting curve-fit, corresponded to the concentration for half maximal inhibition (IC50).
In general, IC50 refers to the concentration at which inhibition is half-maximal. `COc1ccc(-c2cc(-n3ccccc3=O)ccc2-n2cc(CNC(=O)c3ccc(Cl)s3)nn2)cn1` [Compound 143, 5-Chloro-N-((1-(2-(6-methoxypyridin-3-yl)-4-(2-oxopyridin-1(2H)-yl)phenyl)-1H-1,2,3-triazol-4-yl)methyl)thiophene-2-carboxamide] gave an IC50 of no more than 0.1 µM.

In turn, `O=C(NCc1cn(-c2ccc(-n3ccccc3=O)cc2N2CCC(O)CC2)nn1)c1ccc(Cl)s1` [Compound 21, 5-Chloro-N-((1-(2-(4-hydroxypiperidin-1-yl)-4-(2-oxopyridin-1(2H)-yl)phenyl)-1H-1,2,3-triazol-4-yl)methyl)thiophene-2-carboxamide] came in with an IC50 of no more than 0.1 µM.

`O=C(NCc1cn(-c2ccc(-n3ccccc3=O)cc2CO)nn1)c1ccc(Cl)s1` [Compound 119, 5-Chloro-N-((1-(2-(hydroxymethyl)-4-(2-oxopyridin-1(2H)-yl)phenyl)-1H-1,2,3-triazol-4-yl)methyl)thiophene-2-carboxamide] came in with an IC50 of no more than 0.1 µM.

Molecule `O=C(NCc1cn(-c2ccc(-n3ccccc3=O)cc2N2CCC[C@H](O)C2)nn1)c1ccc(Cl)s1` [Compound 23, 5-Chloro-N-((1-(2-((S)-3-hydroxypiperidin-1-yl)-4-(2-oxopyridin-1(2H)-yl)phenyl)-1H-1,2,3-triazol-4-yl)methyl)thiophene-2-carboxamide] showed an IC50 of no more than 0.1 µM.

`NC(=O)CNC(=O)c1cc(-n2ccccc2=O)ccc1-n1cc(CNC(=O)c2ccc(Cl)s2)nn1` [Compound 108, N-((1-(2-((2-Amino-2-oxoethyl)carbamoyl)-4-(2-oxopyridin-1(2H)-yl)phenyl)-1H-1,2,3-triazol-4-yl)methyl)-5-chlorothiophene-2-carboxamide]: the 50% inhibitory concentration (IC50) was 0.1 to 0.5 µM.

The molecule `CSc1cc(-n2ccccc2=O)ccc1-n1cc(CNC(=O)c2ccc(Cl)s2)nn1` [Compound 50, 5-Chloro-N-((1-(2-(methylthio)-4-(2-oxopyridin-1(2H)-yl)phenyl)-1H-1,2,3-triazol-4-yl)methyl)thiophene-2-carboxamide] returned an IC50 of no more than 0.1 µM.

In turn, `Nc1cc(-n2ccccc2=O)ccc1-n1cc(CNC(=O)c2ccc(Cl)s2)nn1` [Compound 45, N-((1-(2-Amino-4-(2-oxopyridin-1(2H)-yl)phenyl)-1H-1,2,3-triazol-4-yl)methyl)-5-chlorothiophene-2-carboxamide] came in with an IC50 of no more than 0.1 µM.

`Nc1ccc(-c2cc(-n3ccccc3=O)ccc2-n2cc(CNC(=O)c3ccc(Cl)s3)nn2)cn1` [Compound 144, N-((1-(2-(6-Aminopyridin-3-yl)-4-(2-oxopyridin-1(2H)-yl)phenyl)-1H-1,2,3-triazol-4-yl)methyl)-5-chlorothiophene-2-carboxamide] showed an IC50 of no more than 0.1 µM.

The molecule `O=C(NCc1cn(-c2ccc(-n3ccccc3=O)cc2OCc2ncon2)nn1)c1ccc(Cl)s1` [Compound 175, N-((1-(2-((1,2,4-Oxadiazol-3-yl)methoxy)-4-(2-oxopyridin-1(2H)-yl)phenyl)-1H-1,2,3-triazol-4-yl)methyl)-5-chlorothiophene-2-carboxamide] yielded an IC50 of no more than 0.1 µM.

Consider `NCCNC(=O)c1cc(-n2ccccc2=O)ccc1-n1cc(CNC(=O)c2ccc(Cl)s2)nn1` [Compound 107, N-((1-(2-((2-Aminoethyl)carbamoyl)-4-(2-oxopyridin-1(2H)-yl)phenyl)-1H-1,2,3-triazol-4-yl)methyl)-5-chlorothiophene-2-carboxamide], for which the IC50 lay within 0.1 to 0.5 µM.

The molecule `O=C(NCc1cn(-c2ccc(-n3ccccc3=O)cc2-c2ccncc2)nn1)c1ccc(Cl)s1` [Compound 125, 5-Chloro-N-((1-(4-(2-oxopyridin-1(2H)-yl)-2-(pyridin-4-yl)phenyl)-1H-1,2,3-triazol-4-yl)methyl)thiophene-2-carboxamide] showed an IC50 of no more than 0.1 µM.

`O=C(NCc1cn(-c2ccc(-n3ccccc3=O)cc2N2CCCC2)nn1)c1ccc(Cl)s1` [Compound 3, 5-Chloro-N-((1-(4-(2-oxopyridin-1(2H)-yl)-2-(pyrrolidin-1-yl)phenyl)-1H-1,2,3-triazol-4-yl)methyl)thiophene-2-carboxamide] yielded an IC50 of no more than 0.1 µM.

Turning to `O=C(NCc1cn(-c2ccc(-n3ccccc3=O)cc2Oc2ccccn2)nn1)c1ccc(Cl)s1` [Compound 151, 5-Chloro-N-((1-(4-(2-oxopyridin-1(2H)-yl)-2-(pyridin-2-yloxy)phenyl)-1H-1,2,3-triazol-4-yl)methyl)thiophene-2-carboxamid], the 50% inhibitory concentration (IC50) is no more than 0.1 µM.

Consider `CN(CCO)c1cc(-n2ccccc2=O)ccc1-n1cc(CNC(=O)c2ccc(Cl)s2)nn1` [Compound 28, 5-Chloro-N-((1-(2-((2-hydroxyethyl)(methyl)amino)-4-(2-oxopyridin-1(2H)-yl)phenyl)-1H-1,2,3-triazol-4-yl)methyl)thiophene-2-carboxamide], for which the IC50 was no more than 0.1 µM.

Turning to `CNC(=O)c1cc(-n2ccccc2=O)ccc1-n1cc(CNC(=O)c2ccc(Cl)s2)nn1` [Compound 102, 5-Chloro-N-((1-(2-(methylcarbamoyl)-4-(2-oxopyridin-1(2H)-yl)phenyl)-1H-1,2,3-triazol-4-yl)methyl)thiophenc-2-carboxamide], the IC50 is no more than 0.1 µM.

`O=C(NCc1cn(-c2ccc(-n3ccccc3=O)cc2-n2ccnc2)nn1)c1ccc(Cl)s1` [Compound 42, N-((1-(2-(1H-Imidazol-1-yl)-4-(2-oxopyridin-1(2H)-yl)phenyl)-1H-1,2,3-triazol-4-yl)methyl)-5-chlorothiophene-2-carboxamide] returned an IC50 of no more than 0.1 µM.

With `COc1cc(-c2cc(-n3ccccc3=O)ccc2-n2cc(CNC(=O)c3ccc(Cl)s3)nn2)ccn1` [Compound 138, 5-Chloro-N-((1-(2-(2-methoxypyridin-4-yl)-4-(2-oxopyridin-1(2H)-yl)phenyl)-1H-1,2,3-triazol-4-yl)methyl)thiophene-2-carboxamide], the half-inhibitory concentration (IC50) was no more than 0.1 µM.

`CS(=O)(=O)CCOc1cc(-n2ccccc2=O)ccc1-n1cc(CNC(=O)c2ccc(Cl)s2)nn1` [Compound 80, 5-Chloro-N-((1-(2-(2-(methylsulfonyl)ethoxy)-4-(2-oxopyridin-1(2H)-yl)phenyl)-1H-1,2,3-triazol-4-yl)methyl)thiophene-2-carboxamide]: the IC50 is no more than 0.1 µM.

Consider `O=C(NCc1cn(-c2ccc(-n3ccccc3=O)cc2Oc2ccncc2)nn1)c1ccc(Cl)s1` [Compound 63, 5-Chloro-N-((1-(4-(2-oxopyridin-1(2H)-yl)-2-(pyridin-4-yloxy)phenyl)-1H-1,2,3-triazol-4-yl)methyl)thiophene-2-carboxamide], for which the IC50 is no more than 0.1 µM.

Take `O=C(NCc1cn(-c2ccc(-n3ccccc3=O)cc2OCc2cccnc2)nn1)c1ccc(Cl)s1` [Compound 165, 5-Chloro-N-((1-(4-(2-oxopyridin-1(2H)-yl)-2-(pyridin-3-ylmethoxy)phenyl)-1H-1,2,3-triazol-4-yl)methyl)thiophene-2-carboxamide]: the IC50 was no more than 0.1 µM.

`O=C(NCc1cn(-c2ccc(-n3ccccc3=O)cc2OCCCO)nn1)c1ccc(Cl)s1` [Compound 74, 5-Chloro-N-((1-(2-(3-hydroxypropoxy)-4-(2-oxopyridin-1(2H)-yl)phenyl)-1H-1,2,3-triazol-4-yl)methyl)thiophene-2-carboxamide] returned an IC50 of no more than 0.1 µM.

`O=C(NCc1nnn(-c2ccc(-n3ccccc3=O)cc2OC[C@H](O)CO)c1I)c1ccc(Cl)s1` [Compound 154, 5-Chloro-N-((1-(2-((R)-2,3-dihydroxypropoxy)-4-(2-oxopyridin-1(2H)-yl)phenyl)-5-iodo-1H-1,2,3-triazol-4-yl)methyl)thiophene-2-carboxamide] came in with an IC50 of 0.1 to 0.5 µM.

In turn, `CNc1cc(-c2cc(-n3ccccc3=O)ccc2-n2cc(CNC(=O)c3ccc(Cl)s3)nn2)ccn1` [Compound 141, 5-Chloro-N-((1-(2-(2-(methylamino)pyridin-4-yl)-4-(2-oxopyridin-1(2H)-yl)phenyl)-1H-1,2,3-triazol-4-yl)methyl)thiophene-2-carboxamide] yielded an IC50 of no more than 0.1 µM.

The molecule `CCOc1cc(-n2ccccc2=O)ccc1-n1cc(CNC(=O)c2ccc(Cl)s2)nn1` [Compound 164, 5-Chloro-N-((1-(2-ethoxy-4-(2-oxopyridin-1(2H)-yl)phenyl)-1H-1,2,3-triazol-4-yl)methyl)thiophene-2-carboxamide] gave an IC50 of no more than 0.1 µM.

Molecule `O=C(NCc1cn(-c2ccc(-n3ccccc3=O)cc2-c2cccnc2)nn1)c1ccc(Cl)s1` [Compound 126, 5-Chloro-N-((1-(4-(2-oxopyridin-1(2H)-yl)-2-(pyridin-3-yl)phenyl)-1H-1,2,3-triazol-4-yl)methyl)thiophene-2-carboxamide] displayed an IC50 of no more than 0.1 µM.

`NC(=O)c1cc(-n2ccccc2=O)ccc1-n1cc(CNC(=O)c2ccc(Cl)s2)nn1` [Compound 101, N-((1-(2-Carbamoyl-4-(2-oxopyridin-1(2H)-yl)phenyl)-1H-1,2,3-triazol-4-yl)methyl)-5-chlorothiophene-2-carboxamide]: the IC50 is no more than 0.1 µM.
